According to the NIST ThermoML archive (doi:10.1021/je100211s):
Numbers after ± are expanded uncertainties.

Assay: mn = molality of the nth substance listed, in mol/kg
Details: 101 kPa, Liquid; for viscosity: Capillary tube (Ostwald / Ubbelohde) method; for mass density: Vibrating tube method

CCCCCCCCCCCCCCCC[N+](C)(C)C.[Br-] [N,N,N-trimethyl-1-hexadecanaminium bromide] + O
Details | mass density, 298.15 K [kg/m3] | mass density, 308.15 K [kg/m3] | mass density, 318.15 K [kg/m3] | viscosity, 298.15 K [mPa·s] | viscosity, 308.15 K [mPa·s] | viscosity, 318.15 K [mPa·s]
m1 = 0.001 | 997.2 ± 0.5 | 994.2 ± 0.5 | 990.4 ± 0.5 | 0.899 ± 0.009 | 0.744 ± 0.008 | 0.617 ± 0.008
m1 = 0.003 | 997.3 ± 0.5 | 994.3 ± 0.5 | 990.5 ± 0.5 | 0.91 ± 0.009 | 0.752 ± 0.008 | 0.622 ± 0.008
m1 = 0.005 | 997.4 ± 0.5 | 994.4 ± 0.5 | 990.6 ± 0.5 | 0.921 ± 0.009 | 0.76 ± 0.008 | 0.635 ± 0.008
